Where a SMILES comes first, the peptide text is derived from it. Bridges are numbered along the chain shown (N, C = ends). [ ]: non-standard residue; d: D form. The star is where a group is joined. Phe(4-COOH) = N[C@@H](Cc1ccc(C(=O)O)cc1)C(=O)O; Bip = N[C@@H](Cc1ccc(-c2ccccc2)cc1)C(=O)O; Phe(3-Me) = Cc1cccc(C[C@H](N)C(=O)O)c1; 4Pal = N[C@@H](Cc1ccncc1)C(=O)O; Cha = N[C@@H](CC1CCCCC1)C(=O)O; Carboxymethyl = O=C(O)C*; Orn = NCCC[C@H](N)C(=O)O; Dab = NCC[C@H](N)C(=O)O
These compounds were tested against T1, human PD-1 / PD-L1-Ig binding on Jurkat cell line over-expressing human PD-1 (Jurkat-PD-1) (Homo sapiens, UniProt Q15116) (assay: Jurkat-PD-1 Cell Binding High-Content Screening Assay (CBA)). Conditions: Jurkat-PD-1 cells, PE-labeled PD-L1-Ig 20 nM final; read-out: Jurkat HPD1_PDL1 IC50.
T1 construct: expressed in transfected cells; host or cells: Jurkat
T1 sequence (Q15116 25-288): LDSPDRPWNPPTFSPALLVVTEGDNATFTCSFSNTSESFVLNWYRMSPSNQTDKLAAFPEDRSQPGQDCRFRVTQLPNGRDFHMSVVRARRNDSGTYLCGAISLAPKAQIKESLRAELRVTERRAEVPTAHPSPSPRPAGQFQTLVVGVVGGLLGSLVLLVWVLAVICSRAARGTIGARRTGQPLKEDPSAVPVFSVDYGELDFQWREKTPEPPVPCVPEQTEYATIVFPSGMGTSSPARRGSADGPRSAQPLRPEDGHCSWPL
Assay type: cell-based
In short: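 Jurkat-hPD-1 cells in DMEM with 10% fetal calf serum receive test compound and are held at 37° C for 2 h. PE-labeled PD-L1-Ig is added at 20 nM final and left for 1 hour. Cells are then fixed and Hoechst-stained, and binding is measured by imaging.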

Structure (SMILES)	IC50 [nM]
Cc1cccc(C[C@@H]2NC(=O)[C@H](CC(=O)O)NC(=O)[C@H](Cc3ccc(C(=O)O)cc3)NC(=O)[C@H](Cc3ccncc3)NC(=O)CSC[C@@H](C(=O)N[C@@H](CCN)C(N)=O)NC(=O)[C@H]([C@@H](C)O)NC(=O)[C@H](C(C)C)NC(=O)[C@H](CC3CCCCC3)NC(=O)[C@H](CCN)NC(=O)[C@@H](CC(C)C)NC(=O)[C@H](CCCN)NC(=O)[C@H](Cc3ccc(OCC(=O)O)cc3)NC(=O)[C@H](Cc3ccc(-c4ccccc4)cc3)NC(=O)[C@H](Cc3ccc(OCC(=O)O)cc3)NC2=O)c1 [Compound 2306] ({CH2CO}-[4Pal][Phe(4-COOH)]D[Phe(3-Me)]Y(Carboxymethyl)[Bip]Y(Carboxymethyl)[Orn][dL][Dab][Cha]VTC[Dab]-NH2; thioether N-14)	7.1
Cc1cccc(C[C@@H]2NC(=O)[C@H](CC(=O)O)NC(=O)[C@H](Cc3ccc(C(=O)O)cc3)NC(=O)[C@H](Cc3ccncc3)NC(=O)CSC[C@@H](C(=O)N[C@@H](CCN)C(N)=O)NC(=O)[C@H](CO)NC(=O)[C@H](C(C)C)NC(=O)[C@H](CC3CCCCC3)NC(=O)[C@H](CCN)NC(=O)[C@@H](CC(C)C)NC(=O)[C@H](CCCN)NC(=O)[C@H](Cc3ccc(OCC(=O)O)cc3)NC(=O)[C@H](Cc3ccc(-c4ccccc4)cc3)NC(=O)[C@H](Cc3ccc(OCC(=O)O)cc3)NC2=O)c1 [Compound 2307] ({CH2CO}-[4Pal][Phe(4-COOH)]D[Phe(3-Me)]Y(Carboxymethyl)[Bip]Y(Carboxymethyl)[Orn][dL][Dab][Cha]VSC[Dab]-NH2; thioether N-14)	12.1
Cc1cccc(C[C@@H]2NC(=O)[C@H](CC(=O)O)NC(=O)[C@H](Cc3ccc(C(=O)O)cc3)NC(=O)[C@H](Cc3ccncc3)NC(=O)CSC[C@@H](C(=O)N[C@@H](CCN)C(N)=O)NC(=O)[C@H](CCC(N)=O)NC(=O)[C@H](C(C)C)NC(=O)[C@H](CC3CCCCC3)NC(=O)[C@H](CCN)NC(=O)[C@@H](CC(C)C)NC(=O)[C@H](CCCN)NC(=O)[C@H](Cc3ccc(OCC(=O)O)cc3)NC(=O)[C@H](Cc3ccc(-c4ccccc4)cc3)NC(=O)[C@H](Cc3ccc(OCC(=O)O)cc3)NC2=O)c1 [Compound 2309] ({CH2CO}-[4Pal][Phe(4-COOH)]D[Phe(3-Me)]Y(Carboxymethyl)[Bip]Y(Carboxymethyl)[Orn][dL][Dab][Cha]VQC[Dab]-NH2; thioether N-14)	5.9
Cc1cccc(C[C@@H]2NC(=O)[C@H](CC(=O)O)NC(=O)[C@H](Cc3ccc(C(=O)O)cc3)NC(=O)[C@H](Cc3ccncc3)NC(=O)CSC[C@@H](C(=O)N[C@@H](CO)C(N)=O)NC(=O)[C@H]([C@@H](C)O)NC(=O)[C@H](C(C)C)NC(=O)[C@H](CC3CCCCC3)NC(=O)[C@H](CCN)NC(=O)[C@@H](CC(C)C)NC(=O)[C@H](CCCN)NC(=O)[C@H](Cc3ccc(OCC(=O)O)cc3)NC(=O)[C@H](Cc3ccc(-c4ccccc4)cc3)NC(=O)[C@H](Cc3ccc(OCC(=O)O)cc3)NC2=O)c1 [Compound 2310] ({CH2CO}-[4Pal][Phe(4-COOH)]D[Phe(3-Me)]Y(Carboxymethyl)[Bip]Y(Carboxymethyl)[Orn][dL][Dab][Cha]VTCS-NH2; thioether N-14)	7.6
Cc1cccc(C[C@@H]2NC(=O)[C@H](CC(=O)O)NC(=O)[C@H](Cc3ccc(C(=O)O)cc3)NC(=O)[C@H](Cc3ccncc3)NC(=O)CSC[C@@H](C(=O)N[C@@H](CO)C(N)=O)NC(=O)[C@H](CCC(N)=O)NC(=O)[C@H](C(C)C)NC(=O)[C@H](CC3CCCCC3)NC(=O)[C@H](CCN)NC(=O)[C@@H](CC(C)C)NC(=O)[C@H](CCCN)NC(=O)[C@H](Cc3ccc(OCC(=O)O)cc3)NC(=O)[C@H](Cc3ccc(-c4ccccc4)cc3)NC(=O)[C@H](Cc3ccc(OCC(=O)O)cc3)NC2=O)c1 [Compound 2312] ({CH2CO}-[4Pal][Phe(4-COOH)]D[Phe(3-Me)]Y(Carboxymethyl)[Bip]Y(Carboxymethyl)[Orn][dL][Dab][Cha]VQCS-NH2; thioether N-14)	7.9
Cc1cccc(C[C@@H]2NC(=O)[C@H](CC(=O)O)NC(=O)[C@H](Cc3ccc(C(=O)O)cc3)NC(=O)[C@H](Cc3ccncc3)NC(=O)CSC[C@@H](C(=O)N[C@H](CC(N)=O)C(N)=O)NC(=O)[C@H](CO)NC(=O)[C@H](C(C)C)NC(=O)[C@H](CC3CCCCC3)NC(=O)[C@H](CCN)NC(=O)[C@@H](CC(C)C)NC(=O)[C@H](CCCN)NC(=O)[C@H](Cc3ccc(OCC(=O)O)cc3)NC(=O)[C@H](Cc3ccc(-c4ccccc4)cc3)NC(=O)[C@H](Cc3ccc(OCC(=O)O)cc3)NC2=O)c1 [Compound 2313] ({CH2CO}-[4Pal][Phe(4-COOH)]D[Phe(3-Me)]Y(Carboxymethyl)[Bip]Y(Carboxymethyl)[Orn][dL][Dab][Cha]VSC[dN]-NH2; thioether N-14)	13.1

Other lines, results leading:

IC50 [nM]	Structure (SMILES)
7.5	Cc1cccc(C[C@@H]2NC(=O)[C@H](CC(=O)O)NC(=O)[C@H](Cc3ccc(C(=O)O)cc3)NC(=O)[C@H](Cc3ccncc3)NC(=O)CSC[C@@H](C(=O)N[C@@H](CCN)C(N)=O)NC(=O)[C@H](CCC(=O)O)NC(=O)[C@H](C(C)C)NC(=O)[C@H](CC3CCCCC3)NC(=O)[C@H](CCN)NC(=O)[C@@H](CC(C)C)NC(=O)[C@H](CCCN)NC(=O)[C@H](Cc3ccc(OCC(=O)O)cc3)NC(=O)[C@H](Cc3ccc(-c4ccccc4)cc3)NC(=O)[C@H](Cc3ccc(OCC(=O)O)cc3)NC2=O)c1 [Compound 2308] ({CH2CO}-[4Pal][Phe(4-COOH)]D[Phe(3-Me)]Y(Carboxymethyl)[Bip]Y(Carboxymethyl)[Orn][dL][Dab][Cha]VEC[Dab]-NH2; thioether N-14)
11.7	Cc1cccc(C[C@@H]2NC(=O)[C@H](CC(=O)O)NC(=O)[C@H](Cc3ccc(C(=O)O)cc3)NC(=O)[C@H](Cc3ccncc3)NC(=O)CSC[C@@H](C(=O)N[C@@H](CO)C(N)=O)NC(=O)[C@H](CCC(=O)O)NC(=O)[C@H](C(C)C)NC(=O)[C@H](CC3CCCCC3)NC(=O)[C@H](CCN)NC(=O)[C@@H](CC(C)C)NC(=O)[C@H](CCCN)NC(=O)[C@H](Cc3ccc(OCC(=O)O)cc3)NC(=O)[C@H](Cc3ccc(-c4ccccc4)cc3)NC(=O)[C@H](Cc3ccc(OCC(=O)O)cc3)NC2=O)c1 [Compound 2311] ({CH2CO}-[4Pal][Phe(4-COOH)]D[Phe(3-Me)]Y(Carboxymethyl)[Bip]Y(Carboxymethyl)[Orn][dL][Dab][Cha]VECS-NH2; thioether N-14)
45.8	Cc1cccc(C[C@@H]2NC(=O)[C@H](CC(=O)O)NC(=O)[C@H](Cc3ccc(C(=O)O)cc3)NC(=O)[C@H](Cc3ccncc3)NC(=O)CSC[C@@H](C(=O)N[C@H](CC(N)=O)C(N)=O)NC(=O)[C@H](CCC(=O)O)NC(=O)[C@H](C(C)C)NC(=O)[C@H](CC3CCCCC3)NC(=O)[C@H](CCN)NC(=O)[C@@H](CC(C)C)NC(=O)[C@H](CCCN)NC(=O)[C@H](Cc3ccc(OCC(=O)O)cc3)NC(=O)[C@H](Cc3ccc(-c4ccccc4)cc3)NC(=O)[C@H](Cc3ccc(OCC(=O)O)cc3)NC2=O)c1 [Compound 2314] ({CH2CO}-[4Pal][Phe(4-COOH)]D[Phe(3-Me)]Y(Carboxymethyl)[Bip]Y(Carboxymethyl)[Orn][dL][Dab][Cha]VEC[dN]-NH2; thioether N-14)
